# Reference: patent US11268069B2, “Reprogramming methods and cell culture platforms” (Fate Therapeutics, Inc., priority 2014, dated 2022)
# Test system: hiPSC clone FTi111
# Test: Thaw of hiPSC clone FTi111 into various culture environments
# Format: cell-based, human
# Details: conventional culture with feeder cells
compound,measurement,value
O=C(NCc1ccccc1)c1csc(Nc2ccncn2)n1 [Thiazovivin],recovery of hiPSC colonies post thaw,only recovered in the presence of Thiazovivin
